Assay results as given in patent US11118200B2, “Method for preparing amines from aldehydes and ketones by biocatalysis” (COMMISSARIAT A L'ENERGIE ATOMIQUE ET AUX ENERGIES …, priority 2017, dated 2021).
Marks after values point to notes of the source that are not given here.

Assays:
enzyme of SEQ ID NO:1 = assay: Screening of carbonyl-containing compounds with ammonia as amine source (specific activity, absorbance at 340 nm); assay type: biochemical, Mycobacterium smegmatis; conditions: 0.2 mM NADPH (best of NADH/NADPH), 10 mM of carbonyl-containing compound, ammonia as amine source
Description: (§1) All the reactions were conducted at 25° C. in spectrophotometric cell (10 mm light path). To a mixture of ammonium formate buffer (2 M NH4HCO2/NH4OH, pH 9.5), NADH or NADPH (0.2 mM) and an appropriate amount of purified enzyme was added.

enzyme of SEQ ID NO:2 = assay: as above; assay type: biochemical, Cystobacter fuscus DSM 2262; conditions: 10 mM of carbonyl-containing compound, ammonia as amine source
Description: as §1

enzyme of SEQ ID NO:3 = assay: as above; assay type: biochemical, Microbacterium sp. MA1; conditions: 10 mM of carbonyl-containing compound, ammonia as amine source
Description: as §1

PheDH-AmDH K77S/N276L = PheDH-AmDH K77S/N276L (Pseudobacillus badius, UniProt Q59224, K78S/N277L); conditions: prior-art engineered enzyme; cited from earlier work
enzyme of SEQ ID NO:4 = assay: Screening of carbonyl-containing compounds with ammonia as amine source (specific activity, absorbance at 340 nm); assay type: biochemical, Aminomonas paucivorans DSM 12260; parameters: key to Detection of the expected compound, SEQ ID NO: 4: d: detected activity; nd: not detected activity; conditions: ammonia as amine source; for Detection of the expected compound, SEQ ID NO: 4: pH 9.5, 25° C.
Description: All the reactions were conducted at 25° C. in spectrophotometric cell (10 mm light path). To a mixture of ammonium formate buffer (2 M NH4HCO2/NH4OH, pH 9.5), NADH or NADPH (0.2 mM) and an appropriate amount of purified enzyme was added. Carbonyl-containing compound (5 or 10 mM) is then added to initiate the reaction (reaction final volume 100 μL). The initial slope measured at 340 nm determined the specific activity of the enzyme according to Beer-Lambert's law and the molar absorptivity of β-NADH (ϵ=6298 M^−1 cm^−1).

enzyme of SEQ ID NO:5 = assay: as above; assay type: biochemical, Mycobacterium vaccae ATCC 25954; conditions: mixture NADH/NADPH (0.1 mM each), 5 mM of carbonyl-containing compound
Description: All the reactions were conducted at 25° C. in spectrophotometric cell (10 mm light path). […] Carbonyl-containing compound (5 or 10 mM) is then added to initiate the reaction (reaction final volume 100 μL). The initial slope measured at 340 nm determined the specific activity of the enzyme according to Beer-Lambert's law and the molar absorptivity of β-NADH (ϵ=6298 M^−1 cm^−1).

[1] = 0.2 mM NADH (best of NADH/NADPH)
[2] = 0.2 mM NADPH (best of NADH/NADPH)

PheDH-AmDH K77S/N276L, sequence (Q59224 whole entry K78S/N277L): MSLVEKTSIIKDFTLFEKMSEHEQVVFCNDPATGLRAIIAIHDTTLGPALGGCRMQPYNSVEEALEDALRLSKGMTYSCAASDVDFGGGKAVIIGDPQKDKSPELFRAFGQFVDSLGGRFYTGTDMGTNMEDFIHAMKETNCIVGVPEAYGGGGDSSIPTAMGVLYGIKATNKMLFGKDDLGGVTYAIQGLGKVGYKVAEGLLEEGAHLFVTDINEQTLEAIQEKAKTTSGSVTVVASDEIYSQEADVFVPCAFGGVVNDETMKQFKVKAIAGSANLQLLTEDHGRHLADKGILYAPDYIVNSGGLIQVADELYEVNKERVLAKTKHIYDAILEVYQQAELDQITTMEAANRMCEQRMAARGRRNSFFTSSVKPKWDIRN

| SMILES | Specific activity, SEQ ID NO: 1 (enzyme of SEQ ID NO:1) | Specific activity, SEQ ID NO: 2 (enzyme of SEQ ID NO:2; [2]) | Specific activity, SEQ ID NO: 3 (enzyme of SEQ ID NO:3; [2]) | also measured |
| --- | --- | --- | --- | --- |
| CCC(C)C=O (stereo not drawn) [drawing 148] | 75.2^b mU.mg^-1 | – | – | Specific activity, SEQ ID NO: 2 (enzyme of SEQ ID NO:2; [1]): 231.9^a mU.mg^-1; Specific activity, SEQ ID NO: 3 (enzyme of SEQ ID NO:3; [1]): 159.4^a mU.mg^-1 |
| CC1CCCC(=O)C1 (racemic) [3-methylcyclohexanone] | 160.9 mU.mg^-1 | 37.0^b mU.mg^-1 | 206.5 mU.mg^-1 | Specific activity, SEQ ID NO: 1 (enzyme of SEQ ID NO:1; listed as drawing 134): 160.9^b mU.mg^-1; specific activity of PheDH-AmDH K77S/N276L (PheDH-AmDH K77S/N276L): 41.1 mU·mg^−1; Specific activity, SEQ ID NO: 3 (enzyme of SEQ ID NO:3; 0.2 mM NADPH (best of NADH/NADPH), listed as drawing 134): 206.5^b mU.mg^-1 |
| CCCC(C)=O [drawing 142] | 9.0^b mU.mg^-1 | 6.4^b mU.mg^-1 | 51.2^b mU.mg^-1 | – |
| CC(=O)C(C)C | 125.8^b mU.mg^-1 | – | 245.6^b mU.mg^-1 | Specific activity, SEQ ID NO: 2 (enzyme of SEQ ID NO:2; [1]): 68.2^a mU.mg^-1 |
| CC1CCCC1=O (stereo not drawn) | 65.2^b mU.mg^-1 | 8.8^b mU.mg^-1 | 90.3^b mU.mg^-1 | – |
| O=C1CCCCC1 [drawing 120] | – | – | – | Specific activity, SEQ ID NO: 4 (enzyme of SEQ ID NO:4; 0.2 mM NADH (best of NADH/NADPH), 10 mM of carbonyl-containing compound): 9.82^a mU.mg^-1; Detection of the expected compound, SEQ ID NO: 4 (enzyme of SEQ ID NO:4): d |
| O=Cc1ccccc1 | – | – | – | Detection of the expected compound, SEQ ID NO: 4 (enzyme of SEQ ID NO:4): d |
| CCCCC=O [drawing 146] | 26.8^b mU.mg^-1 | 72.9^b mU.mg^-1 | 57.8^b mU.mg^-1 | – |
| CCC(=O)CC | 48.2^b mU.mg^-1 | 3.6^b mU.mg^-1 | 192.0^b mU.mg^-1 | – |
| CC(=O)C1CCCCC1 | 2.1^b mU.mg^-1 | – | 64.0^b mU.mg^-1 | – |
| CCCC(C)=O [drawing 170] | – | – | – | Specific activity, SEQ ID NO: 5 (enzyme of SEQ ID NO:5): 6.1 mU.mg^-1 |
| O=C1CCCC1 | 5.6^b mU.mg^-1 | 24.2^b mU.mg^-1 | 60.6^b mU.mg^-1 | – |
